# ChEMBL document CHEMBL1201862, “PubChem BioAssay data set” (2004)
#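 Test compounds were applied to cells in 96-well plates for 48 hours at 5 doses. GI50 = concentration required for 50% inhibition of growth.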 Activity calls are given as the source filed them. Cut-off read from the data, not from the text of the source: active = GI50 up to about 1.1 µM and inactive = higher.
# Legend:
# Experiment in all cases: NCI-60 cell line screen, 48 h
# HL-60 = test system: HL-60
# UO-31 = test system: UO-31
# 786-0 = test system: 786-0
# HOP-92 = test system: HOP-92
# RXF 393 = test system: RXF 393
# U-251 = test system: U-251
# SF-539 = test system: SF-539
# M14 = test system: M14
# KM12 = test system: KM12
# SF-295 = test system: SF-295
# A549 = test system: A549
# OVCAR-4 = test system: OVCAR-4
# OVCAR-3 = test system: OVCAR-3
# LOX IMVI = test system: LOX IMVI
# SNB-75 = test system: SNB-75
# SNB-19 = test system: SNB-19
# Malme-3M = test system: Malme-3M
# NCI-H522 = test system: NCI-H522
# M19-MEL = test system: M19-MEL
# NCI/ADR-RES = test system: NCI/ADR-RES
SMILES,GI50 (HL-60),GI50 (UO-31),GI50 (786-0),GI50 (HOP-92),GI50 (RXF 393),GI50 (U-251),GI50 (SF-539),GI50 (M14),GI50 (KM12),GI50 (SF-295),GI50 (A549),GI50 (OVCAR-4),GI50 (OVCAR-3),GI50 (LOX IMVI),GI50 (SNB-75),GI50 (SNB-19),GI50 (Malme-3M),GI50 (NCI-H522),GI50 (M19-MEL),GI50 (NCI/ADR-RES)
Oc1nnc(CNc2ccc(Cl)cc2Cl)c2ccccc12,22.5 µM (inactive),17.3 µM (inactive),16.7 µM (inactive),32.7 µM (inactive),13.9 µM (inactive),18.2 µM (inactive),17.1 µM (inactive),32 µM (inactive),39.3 µM (inactive),20.9 µM (inactive),17.7 µM (inactive),16.5 µM (inactive),18.9 µM (inactive),46.3 µM (inactive),23.6 µM (inactive),28.1 µM (inactive),23.6 µM (inactive),18.2 µM (inactive),33 µM (inactive),–
C/C(=C1/CCC/C(=C(/C)c2ccccc2)C1=O)c1ccccc1,10.7 µM (inactive),44.6 µM (inactive),44.4 µM (inactive),38.8 µM (inactive),17.6 µM (inactive),25.3 µM (inactive),62.4 µM (inactive),33.3 µM (inactive),27 µM (inactive),38.1 µM (inactive),31.8 µM (inactive),46.3 µM (inactive),64.4 µM (inactive),28.8 µM (inactive),63.1 µM (inactive),> 100 µM (inactive),14.9 µM (inactive),33.6 µM (inactive),24.9 µM (inactive),–
CNC(=O)NCCN1N=C(C)/C(=C\c2ccccc2)CC1=O,> 100 µM (inactive),> 100 µM (inactive),> 100 µM (inactive),> 100 µM (inactive),> 100 µM (inactive),> 100 µM (inactive),> 100 µM (inactive),> 100 µM (inactive),> 100 µM (inactive),> 100 µM (inactive),> 100 µM (inactive),> 100 µM (inactive),> 100 µM (inactive),> 100 µM (inactive),29 µM (inactive),> 100 µM (inactive),> 100 µM (inactive),> 100 µM (inactive),> 100 µM (inactive),–
O=S1(=O)COc2ccccc2-c2ncncc21,> 100 µM (inactive),> 100 µM (inactive),> 100 µM (inactive),> 100 µM (inactive),1.02 µM (active),> 100 µM (inactive),> 100 µM (inactive),> 100 µM (inactive),> 100 µM (inactive),> 100 µM (inactive),> 100 µM (inactive),> 100 µM (inactive),> 100 µM (inactive),> 100 µM (inactive),> 100 µM (inactive),> 100 µM (inactive),> 100 µM (inactive),> 100 µM (inactive),> 100 µM (inactive),–
CC(C)(C)OC(=O)N1CC(C)(C)N2C(=O)C3(CCCO3)C12 (centres undefined),> 100 µM (inactive),> 100 µM (inactive),> 100 µM (inactive),> 100 µM (inactive),> 100 µM (inactive),45.3 µM (inactive),> 100 µM (inactive),> 100 µM (inactive),> 100 µM (inactive),> 100 µM (inactive),> 100 µM (inactive),> 100 µM (inactive),> 100 µM (inactive),> 100 µM (inactive),> 100 µM (inactive),> 100 µM (inactive),> 100 µM (inactive),> 100 µM (inactive),> 100 µM (inactive),–
CCCCCCCCCCC(O)[C@H]1CCC(C2CC[C@H]([C@H](O)CCCCCCCCCCC(O)CC3=CC(C)OC3=O)O2)O1 (some centres undefined),1.77 µM (inactive),1.15 µM (inactive),3.51 µM (inactive),2.44 µM (inactive),1.76 µM (inactive),3.03 µM (inactive),1.56 µM (inactive),1.69 µM (inactive),1.47 µM (inactive),0.214 µM (active),1.44 µM (inactive),2.75 µM (inactive),1.71 µM (inactive),1.38 µM (inactive),1.76 µM (inactive),1.82 µM (inactive),1.39 µM (inactive),1.46 µM (inactive),2.22 µM (inactive),0.211 µM (active)
COc1ccc(/C(Cl)=C(\c2ccc(OCCN(C)C)cc2)c2ccc(OC(=O)C(C)(C)C)cc2)cc1,5.97 µM (inactive),6.95 µM (inactive),10.4 µM (inactive),18.1 µM (inactive),8.28 µM (inactive),13.6 µM (inactive),13.8 µM (inactive),3.58 µM (inactive),13.5 µM (inactive),14.8 µM (inactive),15 µM (inactive),13.9 µM (inactive),15.2 µM (inactive),6.61 µM (inactive),10.2 µM (inactive),16 µM (inactive),13.6 µM (inactive),14.8 µM (inactive),13.7 µM (inactive),–
CC[C@]12C=CCN3CCC4(c5cc([C@@]6(C(=O)OC)CC7CN(CCc8c6[nH]c6ccccc86)C[C@@H]6CCC[C@H]76)c(OC)cc5N(C)C4[C@](O)(C(=O)OC)C1OC(C)=O)C32 (some centres undefined),0.0585 µM (active),3.55 µM (inactive),0.316 µM (active),0.526 µM (active),0.21 µM (active),0.106 µM (active),0.11 µM (active),0.157 µM (active),0.0713 µM (active),0.0986 µM (active),0.231 µM (active),0.792 µM (active),0.061 µM (active),0.141 µM (active),0.0621 µM (active),0.121 µM (active),0.104 µM (active),0.0188 µM (active),0.267 µM (active),1.15 µM (inactive)
